Laboratory results: PMC10383271

Assays:
[1] = test system: alpha-1-acid glycoprotein (AAG); experiment: Fluorescence quenching titration of AAG
Method: Aex is the absorbance at excitation wavelengths, and Aem is the absorbance at emission wavelengths.
The correlation between the stability constant of complexes Kb and standard thermodynamic parameters enthalpy change (ΔH°), and entropy change (ΔS°) was determined by the van’t Hoff Equation (4):(4) logKb=−∆H^°/RT+∆S^°/R where R is the universal gas constant; the free energy change (ΔG°) can be calculated by following Equation (5):(5) ∆G^°=∆H^°−T∆S^°=−RTlnKb
The fluorescence study was performed on a Cary Eclipse 500 spectrophotometer (Agilent, Santa Clara, CA, USA). The spectra were recorded in a cuvette with 10 mm path length at an emission range of 300–500 nm, and the excitation wavelength was 280 nm.

[2] = target: human serum albumin (HSA) (Homo sapiens, UniProt P02768); experiment: Binding site study with HSA, replacement of markers DanG and DanF (fluorescence); parameters: purchased Sigma-Aldrich Chemie GmbH; conditions: for percentage of the replacement of DanG: drug site 1 marker; for percentage of the replacement of DanF: drug site 2 marker
Text: HSA, the most important transport protein in our body, has two main binding sites with high affinity to drug binding: drug site 1 in subdomain IIA and drug site 2 in subdomain IIIA [71, 72, 73]. To determine which site the test compounds bind to, the analysis with markers having an affinity for one of the binding sites can be used. Dansylated amino acids turn out to be good for this type of research. In our study, we used dansyl-L-glycine (DanG) and dansyl-L-phenylalanine (DanF) as drug site 1 and drug site 2 markers, respectively. DanG and DanF bound with HSA show the phenomenon of fluorescence at the excitation wave equal to 350 nm. Under these conditions, the fluorescence spectrum is recorded with a band maximum at approximately 510 nm for DanG and 505 nm for DanF, respectively. We conducted a study in which we introduced successive portions of the analyzed compounds to a solution containing equimolar amounts of HSA and each marker. We increased the molar ratio of the reactants from 1:1:0 to 1:1:10. The intensity of fluorescence decreases during the addition of successive portions of the analyzed compounds.
Based on the obtained results, it is possible to calculate the percentage of replacement of DanG or DanF in the complex with albumin by the tested compounds and thus compare the effectiveness of this reaction for all analyzed molecules. (6) percentage of replacement=F0−F/F0·100%
(§1) Binding site studies were conducted using fluorescence measurements. Spectra were recorded on Cary Eclipse 500 spectrophotometer (Agilent, Santa Clara, CA, USA) at room temperature with a 10 mm path length. HSA and AAG solutions were prepared in phosphate buffer, giving concentrations equal to 1 × 10^−6 M. The concentrations of dansylated-L-glycine (DanG), dansylated-L-phenylalanine (DanF), and quinaldine red (QR) were 1 × 10^−3 M. The densylated amino acids and QR solutions were prepared in ethanol. For the HSA-dansylated amino acids studies, the excitation wavelength was equal to 350 nm, while for the AAG-QR system, it was 500 nm, respectively. Then, 3 mL of protein was mixed with 3 µL of marker solution, giving a molar ratio of 1 to 1. Next, successive portions of the analyzed compounds were added to the mixtures prepared in this way, obtaining the appropriate protein-to-compound molar ratios, amounting to 1:0, 1:0.5, 1:1, 1:2, 1:3, 1:4, 1:5, and 1:10 for the HSA-densylated amino acids systems, and 1:0, 1:0.5, 1:1, 1:2, 1:3, 1:4, 1:6, 1:8, and 1:10 for the AAG-QR systems.

[3] = test system: normal human dermal fibroblasts (NHDF); experiment: MTT assay, viability of NHDF cell culture (ISO 10993 part 5); format: cell-based; conditions: NHDF cell cultures, 24 h incubation
Method: The viability of the normal human dermal fibroblasts (NHDF) cell culture after 24 h incubation with the tested compounds 5a-c-7a-c was assessed by carrying out the MTT assay. This test was performed according to ISO 10993 part 5, Appendix C. For all tested compounds, the IC50 values were calculated using four-parameter logistics. Normal human dermal fibroblasts (NHDF) were purchased from the American Type Culture Collection (ATCC) for cytotoxicity evaluation of the tested compounds. The cells were grown in Dulbecco's Modified Eagle Medium DMEM with […] glucose without phenol red supplemented with 10% FBS and 2 mM L-glutamine, and 25 μg/mL gentamicin. The NHDF cells were cultured under standard conditions (5% CO2, 37 °C, and 95% humidity) with evaluation morphology and confluence at least twice a week. For the assay, the cells were used only in a logarithmic growth phase, and the TrypLE solution was used for 2 min at 37 °C to detach cells. Then, the TrypLE solution was inactivated by adding a culture medium, and the suspension of cells was collected into a tube and centrifuged for 5 min at 1000 rpm. Then, the supernatant was removed, fresh medium was added, and the pellet was resuspended and calculated using the […] chamber. The suspension of cells was prepared to allow seeding 10,000 cells/well density and incubated for 24 h to regenerate in CO2-incubator. The tested compounds were dissolved in DMSO to a final concentration of 10 mM and stored at -20 °C. Before use, the compound solution was kept at room temperature until thawing, and then, samples with 3 different concentrations of compounds were prepared (100 μM, 50 μM, and 10 μM) for each compound. The tested concentrations of compounds were prepared in a culture medium. […] The evaluation of the cytotoxicity of the newly synthesized compounds was carried out in accordance with the ISO 10,993 part V standard by performing the MTT test. After seeding at a density of 10,000 cells per well and adhering overnight, the NHDF cells were treated with the test compounds for 24 h in a CO2 incubator. The supernatant was then removed, the cells were washed with PBS, a 1mg/mL solution of MTT dissolved in MEM was added, and the cultures were re-incubated for 2 h in a CO2 incubator. The medium was then removed, and for a further 30 min, the formazan crystals were dissolved in 100 μL of isopropanol. The absorbance was measured with a Varioskan Go microplate reader at a wavelength of 570 nm. […] For enzyme assays, the IC50 was calculated according to the procedure provided by the kit manufacturer. The significance was set at p < 0.05. Based on the tests performed, the test power was calculated to be greater than 80%.

[4] = test system: alpha-1-acid glycoprotein (AAG); experiment: Binding site study with AAG, replacement of marker quinaldine red (fluorescence); parameters: species or system human
Text: Orosomucoid has seven binding sites in its molecule, but there is only one site where the drugs bind. A very good fluorescent marker for binding site study in the case of AAG is quinalidine red (QR).
We used a 500 nm excitation wavelength. In these conditions, the maximum emission spectra were located near 600 nm. We increased the molar ratio of the reactants from 1:1:0 to 1:1:10. The intensity of fluorescence decreases during the addition of successive portions of the analyzed compounds.
as §1

[5] = HSA:marker:compound molar ratio 1:1:0.5
[6] = HSA:marker:compound molar ratio 1:1:1
[7] = HSA:marker:compound molar ratio 1:1:2
[8] = HSA:marker:compound molar ratio 1:1:3
[9] = HSA:marker:compound molar ratio 1:1:4
[10] = HSA:marker:compound molar ratio 1:1:5
[11] = HSA:marker:compound molar ratio 1:1:10

human serum albumin (HSA), sequence (P02768 25-609): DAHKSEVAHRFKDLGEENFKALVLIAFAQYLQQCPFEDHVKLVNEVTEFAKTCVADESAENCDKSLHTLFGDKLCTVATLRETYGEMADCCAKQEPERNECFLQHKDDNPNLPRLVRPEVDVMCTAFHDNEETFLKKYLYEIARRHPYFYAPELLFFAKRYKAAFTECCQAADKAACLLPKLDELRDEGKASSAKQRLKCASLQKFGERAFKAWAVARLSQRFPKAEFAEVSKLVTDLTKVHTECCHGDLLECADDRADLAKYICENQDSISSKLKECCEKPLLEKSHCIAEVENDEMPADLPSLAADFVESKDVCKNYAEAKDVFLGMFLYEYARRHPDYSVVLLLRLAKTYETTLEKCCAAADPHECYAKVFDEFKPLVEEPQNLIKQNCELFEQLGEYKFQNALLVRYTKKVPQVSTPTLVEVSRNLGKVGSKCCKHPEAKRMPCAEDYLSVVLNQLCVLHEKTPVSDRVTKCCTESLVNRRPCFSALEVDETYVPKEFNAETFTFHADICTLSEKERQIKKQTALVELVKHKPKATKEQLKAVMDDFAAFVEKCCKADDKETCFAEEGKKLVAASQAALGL

## CCCCn1c(C)c2c(OCC(=O)N/N=C/c3ccccc3)nn(C)c(=O)c2c1C [Compound 5a, N-[(Z/E)-benzylideneamino]-2-(6-butyl-3,5,7-trimethyl-4-oxo-pyrrolo[3,4-d]pyridazin-1-yl)oxy-acetamide]
[1]; T 297 K
  Ksv: 9.04 ± 0.16 ·10^4 dm^3·mol^−1
  kq: 9.04 ·10^12 dm^3·mol^−1·s^−1
  logKb: 1.82 ± 0.12
[1]; T 303 K
  Ksv: 3.15 ± 0.41 ·10^4 dm^3·mol^−1
  kq: 3.15 ·10^12 dm^3·mol^−1·s^−1
  logKb: 1.73 ± 0.27
[1]; T 308 K
  Ksv: 1.11 ± 0.16 ·10^4 dm^3·mol^−1
  kq: 1.11 ·10^12 dm^3·mol^−1·s^−1
  logKb: 1.62 ± 0.26
[2]; [5]
  percentage of the replacement of DanG: 0.7%
  percentage of the replacement of DanF: 2.3%
[2]; [6]
  percentage of the replacement of DanG: 0.7%
  percentage of the replacement of DanF: 2.7%
[2]; [7]
  percentage of the replacement of DanG: 3.7%
  percentage of the replacement of DanF: 5.9%
[2]; [8]
  percentage of the replacement of DanG: 5.2%
  percentage of the replacement of DanF: 9.0%
[2]; [9]
  percentage of the replacement of DanG: 6.7%
  percentage of the replacement of DanF: 11.7%
[2]; [10]
  percentage of the replacement of DanG: 8.5%
  percentage of the replacement of DanF: 14.9%
[2]; [11]
  percentage of the replacement of DanG: 15.7%
  percentage of the replacement of DanF: 28.8%
[3]; Homo sapiens, MTT, mean (± SD), n = 5
  IC50: 85.6 ± 2.5 µM
[3]
  Cell Morphology in Culture: Cells with an elongated shape characteristic of fibroblasts, the granularities were observed in 3–5 fields of view from 10 analyzed fields.
[4]; AAG:marker:compound molar ratio 1:1:0.5
  percentage of the replacement of QR: 23.7%
[4]; AAG:marker:compound molar ratio 1:1:1
  percentage of the replacement of QR: 35.5%
[4]; AAG:marker:compound molar ratio 1:1:2
  percentage of the replacement of QR: 48.1%
[4]; AAG:marker:compound molar ratio 1:1:3
  percentage of the replacement of QR: 55.0%
[4]; AAG:marker:compound molar ratio 1:1:4
  percentage of the replacement of QR: 58.8%
[4]; AAG:marker:compound molar ratio 1:1:6
  percentage of the replacement of QR: 65.6%
[4]; AAG:marker:compound molar ratio 1:1:8
  percentage of the replacement of QR: 69.5%
[4]; AAG:marker:compound molar ratio 1:1:10
  percentage of the replacement of QR: 72.5%
